Patent publication US12440610B2, “Coated medical devices and methods of inhibiting implant-associated infections” (UNIVERSITY OF CINCINNATI, priority 2017, dated 2025)
“And” between values parts separate entries of the source, which are not always exact repeats. Identical values can stand only once.

How the values were obtained:
[1] = system: P. aeruginosa (strain 762); experiment: Subcutaneous implant and infection of mice, P. aeruginosa colonization of implant; conditions: CF-1 mice, 2 million cfu, 3 days post infection; for reduction of P. aeruginosa colonization of PTFE in vivo: subcutaneous coated PTFE; for reduction of P. aeruginosa colonization of silk suture in vivo: subcutaneous coated silk suture; for reduction of P. aeruginosa colonization of titanium screws in vivo: subcutaneous coated titanium screws
Description: (§1) Intact 5 cm sections of PTFE graft, full 75 cm length of silk suture, and individual titanium screws were dip-coated into each antibiotic solution and immediately withdrawn at a rate of ˜200 mm/'s. Thin films of antibiotic were subsequently formed as the ethanol evaporated.
(§2) After the PTFE, silk suture, and titanium are withdrawn from the antibiotic stock solution, they were allowed to further dry overnight at ambient conditions at room temperature. Vehicle (100% ethanol)-coated pieces were prepared in an identical manner, substituting absolute ethanol for the antibiotic stock solutions. PTFE implants were then cut to 5 mm×5 mm pieces, and silk suture was cut to 2 cm length for use in vitro and in vivo. Titanium screws were not further manipulated prior to use in vitro and in vivo.
(§3) MRSA was obtained from the clinical microbiology lab of Shriner's Hospital for Children (Cincinnati, OH). […] P. aeruginosa was grown from frozen glycerol stock overnight on TSB agar plates. MRSA was grown overnight from frozen glycerol stock on TSB agar plates with 5% sheep's blood. […] Bacteria were then washed twice by centrifugation at 3000×g for 10 min and resuspension in 0.9% NaCl. The optical density of the suspended bacteria was determined at 550 nm light and final inoculating concentration calculated from standard curves specific to each strain. Bacteria remained in 0.9% NaCl for in viva testing but were placed back into TSB for in vitro testing.
(§4) CF-1 mice were anesthetized with 120 mg/kg ketamine/16 mg/kg xylazine injected intraperitoneally and their backs shaved with electric clippers. A 2 cm incision was made in the back and implants (5 mm×5 mm PTFE, 2 cm silk suture, or titanium screws) were placed subcutaneously (n=9 per group).
(§5) Mice were sacrificed 3 days post infection. The implant capsule was entered with sterile instruments and the implant was removed and placed in 10 mL of sterile PBS. […] The implants and tissue were placed in a bath sonicator for 10 min to release adherent bacteria. Bacteria were then quantified by the plate dilution method. The most concentrated solution plated for each sample was a 1:100 dilution.

[2] = system: methicillin resistant S. aureus (MRSA); experiment: In vitro bacterial adherence and colonization of coated implants, MRSA; assay type: cell-based; conditions: 24 hours incubation; for reduction of MRSA adherent to PTFE in vitro: coated PTFE; for reduction of MRSA adherent to PTFE in vitro / reduction of MRSA adherent to titanium screws in vitro: vs vehicle-coated controls; for reduction of MRSA adherent to silk suture in vitro: coated silk suture, vs vehicle (100% ethanol)-coated controls; for reduction of MRSA adherent to titanium screws in vitro: coated titanium screws
Description: Small pieces of PTFE (5 mm×5 mm), silk suture (2 cm), and titanium screws antibiotic-coated and vehicle (100% ethanol)-coated, were prepared for analysis as in Example 1.2. Bacteria was prepared as in 2.3 and 1000 colony forming units (cfus) in 300 μL was placed in the wells of 96-well plates. The antibiotic-coated and vehicle-coated pieces were then immersed and incubated for 24 hours at 37° C., 95% humidity (n=15 per group). Pieces were then placed in 10 mL sterile PBS and bath sonicated for 10 minutes to release adherent bacteria. Bacteria were quantified by the plate dilution method.

[3] = system: methicillin resistant S. aureus (MRSA); experiment: Subcutaneous implant and infection of mice, MRSA colonization of implant; conditions: CF-1 mice, 2.5 million cfu, 3 days post infection; for reduction of MRSA colonization of PTFE in vivo: subcutaneous coated PTFE; for reduction of MRSA colonization of silk suture in vivo: subcutaneous coated silk suture; for reduction of MRSA colonization of titanium screws in vivo: subcutaneous coated titanium screws
Description: as §1, §2, §3, §4, §5

[4] = system: P. aeruginosa (strain 762); experiment: In vitro bacterial adherence and colonization of coated implants, P. aeruginosa; assay type: cell-based; conditions: for reduction of P. aeruginosa adherent to PTFE in vitro / reduction of P. aeruginosa adherent to silk suture in vitro / reduction of P. aeruginosa adherent to titanium screws in vitro: 24 hours incubation, vs vehicle-coated controls; for reduction of P. aeruginosa adherent to silk suture in vitro: coated silk suture
Description: Bacteria was prepared as in 2.3 and 1000 colony forming units (cfus) in 300 μL was placed in the wells of 96-well plates. […] Pieces were then placed in 10 mL sterile PBS and bath sonicated for 10 minutes to release adherent bacteria. Bacteria were quantified by the plate dilution method.

physchem = conditions: 65 °C, organic solvent or mixture, thermodynamic from solid
Description: The process involved heating the ethanol to 65° C. and slowly adding the solid solute under bath sonication and manual agitation until the resulting solution was transparent. Dip coating was then carried out at room temperature immediately after removing the stock solutions from the heated water bath.
The reported solubility in the literature of the above antibiotics in ethanol are incompletely studied.

[5] = cited from earlier work; for reported solubility in ethanol/alcohol (in words): literature

Compound	reduction of P. aeruginosa colonization of PTFE in vivo [1]	reduction of P. aeruginosa colonization of silk suture in vivo [1]	reduction of P. aeruginosa colonization of titanium screws in vivo [1]	reduction of MRSA adherent to PTFE in vitro [2]	reduction of MRSA adherent to silk suture in vitro [2] [log]	reduction of MRSA adherent to titanium screws in vitro [2]	reduction of MRSA colonization of PTFE in vivo [3]	reduction of MRSA colonization of silk suture in vivo [3]	reduction of MRSA colonization of titanium screws in vivo [3]	reduction of P. aeruginosa adherent to PTFE in vitro ([4]; coated PTFE) [log]	reduction of P. aeruginosa adherent to silk suture in vitro [4] [log]	reduction of P. aeruginosa adherent to titanium screws in vitro ([4]; coated titanium screws) [log]	solubility (physchem)	reported solubility in ethanol/alcohol (in words) [5]	further results
C[C@H]1COc2c(N3CCN(C)CC3)c(F)cc3c(=O)c(C(=O)O)cn1c23 [Levofloxacin]	4.4 log and 3.7 log	3.9 log and 4.3 log	4.0 log and 3.3 log	3.9 log	5.2	5.3 log	4.5 log and 3.7 log	5.1 log and 4.0 log	3.3 log and 3.0 log	6.2	6.0	6.4	–	–	reduction of MRSA adherent to PTFE in vitro ([2]; listed as levofloxacin): 5.7 log; reduction of MRSA adherent to titanium screws in vitro ([2]; listed as levofloxacin): 5.2 log; reduction of P. aeruginosa adherent to PTFE in vitro ([4]; coated PTFE, listed as levofloxacin): 6.1 log
CC[C@H]1OC(=O)[C@H](C)[C@@H](O[C@H]2C[C@@](C)(OC)[C@@H](O)[C@H](C)O2)[C@H](C)[C@@H](O[C@@H]2O[C@H](C)C[C@H](N(C)C)[C@H]2O)[C@](C)(O)C[C@@H](C)C(=O)[C@H](C)[C@@H](O)[C@]1(C)O [Erythromycin]	4.4 log and 3.3 log	0.6 log and 0.4 log	0.5 log and 0.4 log	5.7 log and 4.5 log	5.2	5.2 log and 5.3 log	3.8 log and 3.2 log	5.1 log	2.2 log and 2.5 log	5.8	1.6	5.1	166000 µg/mL and 227000 µM	freely soluble	ethanol solubility reported by Sigma ([5]; ethanol, vendor value): 50 mg/mL; PA adherence to PTFE (in words) ([4]; coated PTFE, in vitro, p<0.05): significantly reduced; PA adherence to titanium screws (in words) ([4]; coated titanium screws, in vitro, p<0.05): significantly reduced
O=C(N[C@H](CO)[C@H](O)c1ccc([N+](=O)[O-])cc1)C(Cl)Cl [Chloramphenicol]	–	–	–	5.7 log	5.2	5.3 log	3.1 log and 2.3 log	1.2 log and 1.1 log	2.2 log and 2.3 log	–	–	–	–	–	reduction of MRSA adherent to titanium screws in vitro ([2]; listed as chloramphenicol): 5.2 log
C[C@H]1c2cccc(O)c2C(=O)C2=C(O)[C@]3(O)C(=O)C(C(N)=O)=C(O)[C@@H](N(C)C)[C@@H]3[C@@H](O)[C@@H]21 [Doxycycline, Doxycycline Hyclate]	4.4 log and 2.7 log	1.2 log and 1.1 log	3.7 log and 2.8 log	5.7 log	5.2	5.3 log	4.6 log and 4.7 log	3.2 log and 2.1 log	3.1 log and 3.0 log	5.5	4.4	6.4	41000 µg/mL and 80000 µM	sparingly soluble	reduction of MRSA adherent to titanium screws in vitro ([2]; listed as doxycycline): 5.2 log; reduction of P. aeruginosa adherent to PTFE in vitro ([4]; coated PTFE, listed as doxycycline): 6.1 log; reduction of P. aeruginosa adherent to silk suture in vitro ([4]; listed as doxycycline): 6.0 log
